According to patent publication US7196110B2, “N-substituted tricyclic 3-aminopyrazoles as inhibitors for the treatment of cell proliferative disorders” (Janssen Phamaceutica N.V., priority 2002, dated 2007):

Tests used:
[1] = biological target: T1, PDGF-receptor beta enzyme comprising the tyrosine kinase domain (Homo sapiens, UniProt P09619); test: Inhibition of PDGF-receptor kinase activity (cell-free, PLC1 peptide, 33P Flashplate); type: biochemical; settings: PDGF-R kinase activity; for inhibition at 10 µM: compound at 10 uM, read-out: Percent Inhibition @ 10 uM; for IC50: read-out: IC50
T1 construct: from amino acid 545 to 1106 of GenBank Access NO: AAA36427
T1 sequence (P09619 545-1106): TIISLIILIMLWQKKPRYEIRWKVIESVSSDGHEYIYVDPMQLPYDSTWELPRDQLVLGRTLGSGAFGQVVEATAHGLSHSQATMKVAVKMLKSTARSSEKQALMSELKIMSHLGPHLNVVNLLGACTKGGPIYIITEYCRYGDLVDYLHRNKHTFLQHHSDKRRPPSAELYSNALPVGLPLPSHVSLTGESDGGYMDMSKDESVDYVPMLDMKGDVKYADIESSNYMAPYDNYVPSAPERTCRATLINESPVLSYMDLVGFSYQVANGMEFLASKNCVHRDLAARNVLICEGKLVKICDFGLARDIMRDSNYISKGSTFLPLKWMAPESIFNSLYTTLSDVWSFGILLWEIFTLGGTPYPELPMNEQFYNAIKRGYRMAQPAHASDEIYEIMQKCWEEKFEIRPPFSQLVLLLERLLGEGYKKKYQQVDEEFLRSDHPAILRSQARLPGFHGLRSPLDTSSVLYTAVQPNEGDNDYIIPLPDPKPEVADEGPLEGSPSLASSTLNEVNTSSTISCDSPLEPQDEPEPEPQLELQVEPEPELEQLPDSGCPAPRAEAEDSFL
Procedure, shortened: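 The IC50 is the inhibitor level halving kinase activity relative to inhibitor-free wells, measured as 33P captured on a streptavidin-bound biotin-PLC1 peptide. The reaction ran 60 min at 30 °C in pH 8 Tris buffer with 1 mM DTT, 5 μM ATP and the 545–1106 kinase-domain enzyme.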

[2] = biological target: c-Abl kinase (Abelson murine leukemia virus, UniProt P00521); test: Inhibition of c-Abl kinase activity (cell-free, Abl peptide substrate, 33P Flashplate); type: biochemical; settings: IC50 for the c-Abl kinase activity
Sequence of c-Abl kinase (P00521 115-385): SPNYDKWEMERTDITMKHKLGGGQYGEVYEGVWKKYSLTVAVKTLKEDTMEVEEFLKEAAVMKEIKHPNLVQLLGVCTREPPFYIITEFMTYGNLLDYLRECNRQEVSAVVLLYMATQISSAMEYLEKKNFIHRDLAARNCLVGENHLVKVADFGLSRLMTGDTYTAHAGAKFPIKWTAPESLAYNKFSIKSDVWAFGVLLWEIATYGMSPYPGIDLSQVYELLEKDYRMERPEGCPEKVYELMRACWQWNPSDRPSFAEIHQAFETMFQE
Protocol: The inhibitory activity of compounds within the scope of the invention on c-Abl kinase activity was tested according to the following procedure.
• 1. 10× Kinase Buffer [500 mM Tris-HCl pH=8, 100 mM MgCl2, 1 mM Na3VO4] • 2. 10 mM DTT [final concentration 1 mM] • 3. 10 mM ATP [final concentration 5 μM] (Gibco, Cat No:18330-019, Carlsbad, Calif.) • 4. ^33P-γ-ATP [NEG-602H; 2000–3000 Ci/mmol], 2 μCuries per well at 10 μCi/μl (0.2 μl/well) • 5. Abl enzyme (New England Biolabs, Cat No. P6050L, Beverly, Mass.) at 100 Units/μl use 10 Units/well (0.1 μl/well) • 6. Enzyme Dilution Buffer [50 mM Tris-HCl pH=8.0, 0.1% BSA] • 7. Wash/Stop Buffer [PBS+100 mM EDTA] • 8. NEN Streptavidin Flashplates (New England Nuclear, Cat No. SMP-103, Boston, Mass.). • 9. Abl Peptide Substrate (Biotin-[…]-amide) at 1 mM in 50 mM Tris-HCL pH=8.0. (Use at 1.0 μM). Procedure
Reagents were first mixed according to the following regimen:
The above reaction mixture was dispensed into each well of a Flashplate at 70 μl/well. To test the effect of a compound on Abl kinase activity, the test compound either in a fixed concentration or in serially diluted concentrations in 100% DMSO was added to appropriate wells at 1 μl/well.
Enzyme Abl was diluted in enzyme dilution buffer as following:
The kinase reaction was started by adding 30 μl of diluted Abl enzyme solution to each well on the Flashplate containing hot ATP (2 μCi/well) and Abl peptide substrate (at 1 μM final conc.), except wells of column 12 rows E and F, which were used to calculate the plate background. The Flashplate was swirled to mix and was incubated at 30° C. for 60 minutes. Then, the reaction mixture was discarded and the Flashplate was washed 3 times each with 200 μL Wash/Stop Buffer. Subsequently, each well on the Flashplate was filled with 200 μl of Wash/Stop buffer. The amount of ^33P retained in each well was measured using a Packard TopCount after the plate was sealed with a transparent plate sealer.
In order to test the potency of inhibition of present compounds, an IC50 for an individual compound was measured using the above procedure. As used herein, the IC50 for c-Abl kinase activity refers to the concentration of an inhibitor at which the activity of c-Abl kinase is reduced by one-half as compared with reactions containing no inhibitor.

Row | SMILES | inhibition at 10 µM [1] [%] | IC50 [1] [µM] | IC50 [2] [µM]
1 | COc1cc2c(cc1OCCCn1ccnc1)Cc1c-2n[nH]c1Nc1cccc(F)c1 [Compound 226, (3-Fluoro-phenyl)-[6-(3-imidazol-1-yl-propoxy)-7-methoxy-2,4-dihydro-indeno[1,2-c]pyrazol-3-yl]-amine] | 102 | 0.003 | 0.245
2 | COc1cc2c(cc1OCC(O)CO)Cc1c-2n[nH]c1NCc1c(F)cccc1F (centres unmarked) [Compound 457, 3-[3-(2,6-Difluoro-benzylamino)-7-methoxy-2,4-dihydro-indeno[1,2-c]pyrazol-6-yloxy]-propane-1,2-diol] | 100 | 0.00341 | 0.004
3 | COc1cccc(Nc2[nH]nc3c2Cc2cc(OCCCO)c(OCCCO)cc2-3)c1 [Compound 400, 3-[7-(3-Hydroxy-propoxy)-3-(3-methoxy-phenylamino)-2,4-dihydro-indeno[1,2-c]pyrazol-6-yloxy]-propan-1-ol] | 98.5 | 0.00292 | 0.005
4 | COc1ccc(OC)c(Nc2[nH]nc3c2Cc2ccccc2-3)c1 [Compound 341, (2,4-Dihydro-indeno[1,2-c]pyrazol-3-yl)-(2,5-dimethoxy-phenyl)-amine] | 92.5 | 0.0412 | 0.35
5 | OCCCOc1cc2c(cc1OCCCO)-c1n[nH]c(Nc3ccc(F)c(Cl)c3)c1C2 [Compound 389, 3-[3-(3-Chloro-4-fluoro-phenylamino)-7-(3-hydroxy-propoxy)-2,4-dihydro-indeno[1,2-c]pyrazol-6-yloxy]-propan-1-ol] | 98 | 0.0151 | 0.017
6 | COc1cc2c(cc1OCCCO)Cc1c-2n[nH]c1NCc1c(F)cccc1F [Compound 449, 3-[3-(2,6-Difluoro-benzylamino)-7-methoxy-2,4-dihydro-indeno[1,2-c]pyrazol-6-yloxy]-propan-1-ol] | 98.5 | 0.0041 | 0.023
7 | Fc1ccc(Nc2[nH]nc3c2Cc2cc(F)ccc2-3)cc1 [Compound 201, (6-Fluoro-2,4-dihydro-indeno[1,2-c]pyrazol-3-yl)-(4-fluoro-phenyl)-amine] | 96 | 0.009 | 0.217
8 | COc1cccc(Nc2[nH]nc3c2C(C)c2cc(OC)c(OC)cc2-3)c1 (centres unmarked) [Compound 253, (6,7-Dimethoxy-4-methyl-2,4-dihydro-indeno[1,2-c]pyrazol-3-yl)-(3-methoxy-phenyl)-amine] | 94 | 0.0165 | 0.0379
9 | COc1ccc(Nc2[nH]nc3c2Cc2ccc(C)cc2-3)cc1Cl [Compound 309, (3-Chloro-4-methoxy-phenyl)-(7-methyl-2,4-dihydro-indeno[1,2-c]pyrazol-3-yl)-amine] | 92.5 | 0.0302 | 0.822
10 | COc1cc2c(cc1OC)C(C)c1c-2n[nH]c1Nc1cccc(F)c1 (centres unmarked) [Compound 249, (6,7-Dimethoxy-4-methyl-2,4-dihydro-indeno[1,2-c]pyrazol-3-yl)-(3-fluoro-phenyl)-amine] | 96 | 0.006 | 0.035
11 | COc1cc2c(cc1OC)C(C)c1c-2n[nH]c1Nc1cccc(Br)c1 (centres unmarked) [Compound 256, (3-Bromo-phenyl)-(6,7-dimethoxy-4-methyl-2,4-dihydro-indeno[1,2-c]pyrazol-3-yl)-amine] | 89 | 0.008 | 0.055
12 | COc1cccc(Nc2[nH]nc3c2Cc2cc(OC)c(OC)cc2-3)c1 [Compound 29, (6,7-Dimethoxy-2,4-dihydro-indeno[1,2-c]pyrazol-3-yl)-(3-methoxy-phenyl)-amine] | 99 |  | 0.005
13 | COc1cccc2c1Cc1c-2n[nH]c1Nc1ccccc1 [Compound 8] | 98 | 0.054 | 0.694
14 | COc1cc2c(cc1OCCCO)Cc1c-2n[nH]c1Nc1cccc(F)c1 [Compound 265, 3-[3-(3-Fluoro-phenylamino)-7-methoxy-2,4-dihydro-indeno[1,2-c]pyrazol-6-yloxy]-propan-1-ol] | 63 | 0.00553 | 0.085
15 | COc1cc2c(cc1OC)-c1n[nH]c(Nc3cccc(Br)c3)c1C2 [Compound 44, (3-Bromo-phenyl)-(6,7-dimethoxy-2,4-dihydro-indeno[1,2-c]pyrazol-3-yl)-amine] | 94 | 0.00054 | 0.007
16 | COc1cc2c(cc1OCCCO)Cc1c-2n[nH]c1NCc1ccccc1Cl [Compound 385, 3-[3-(2-Chloro-benzylamino)-7-methoxy-2,4-dihydro-indeno[1,2-c]pyrazol-6-yloxy]-propan-1-ol] | 98.5 | 0.00407 | 0.012
17 | COc1cc(Nc2[nH]nc3c2Cc2cc(OC)c(OC)cc2-3)cc(OC)c1 [Compound 41, (6,7-Dimethoxy-2,4-dihydro-indeno[1,2-c]pyrazol-3-yl)-(3,5-dimethoxy-phenyl)-amine] | 83 | 0.0336 | 0.078
18 | Fc1ccc2c(c1)-c1n[nH]c(Nc3ccccc3)c1C2 [Compound 299, (7-Fluoro-2,4-dihydro-indeno[1,2-c]pyrazol-3-yl)-phenyl-amine] | 80 | 0.0193 | 0.198
19 | CCOc1cccc(Nc2[nH]nc3c2Cc2cc(OC)c(OC)cc2-3)c1 [Compound 374, (6,7-Dimethoxy-2,4-dihydro-indeno[1,2-c]pyrazol-3-yl)-(3-ethoxy-phenyl)-amine] | 100 | 0.0141 | 0.051
20 | Clc1cccc(Cl)c1CNc1[nH]nc2c1Cc1c(OCCCN3CCOCC3)cccc1-2 [Compound 415, (2,6-Dichloro-benzyl)-[5-(3-morpholin-4-yl-propoxy)-2,4-dihydro-indeno[1,2-c]pyrazol-3-yl]-amine] | 98 | 0.0258 | 0.219
21 | COc1cc2c(cc1OC)-c1n[nH]c(Nc3cc(F)cc(F)c3)c1C2 [Compound 207, (3,5-Difluoro-phenyl)-(6,7-dimethoxy-2,4-dihydro-indeno[1,2-c]pyrazol-3-yl)-amine] | 89 | 0.01 | 0.062
22 | COc1cc2c(cc1OCC(O)CO)Cc1c-2n[nH]c1Nc1cccc(F)c1 (centres unmarked) [Compound 262, 3-[3-(3-Fluoro-phenylamino)-7-methoxy-2,4-dihydro-indeno[1,2-c]pyrazol-6-yloxy]-propane-1,2-diol] | 90 | 0.001 | 0.027
23 | COc1cccc(Nc2[nH]nc3c2Cc2cc(Cl)ccc2-3)c1 [Compound 190, (6-Chloro-2,4-dihydro-indeno[1,2-c]pyrazol-3-yl)-(3-methoxy-phenyl)-amine] | 80 | 0.04 | 0.069
24 | COc1cc2c(cc1F)Cc1c-2n[nH]c1Nc1ccc(F)cc1 [Compound 361, (6-Fluoro-7-methoxy-2,4-dihydro-indeno[1,2-c]pyrazol-3-yl)-(4-fluoro-phenyl)-amine] | 100 | 0.0116 | 0.043
25 | Cc1ccc2c(c1)-c1n[nH]c(Nc3cccc(C(C)O)c3)c1C2 (centres unmarked) [Compound 310, 1-[3-(7-Methyl-2,4-dihydro-indeno[1,2-c]pyrazol-3-ylamino)-phenyl]-ethanol] | 95.5 | 0.0202 | 1.47
26 | COc1cc2c(cc1OCCCO)Cc1c-2n[nH]c1Nc1cccc(Cl)c1 [Compound 268, 3-[3-(3-Chloro-phenylamino)-7-methoxy-2,4-dihydro-indeno[1,2-c]pyrazol-6-yloxy]-propan-1-ol] | 84 | 0.00113 | 0.02
27 | Fc1ccc(F)c(Nc2[nH]nc3c2Cc2ccccc2-3)c1 [Compound 339, (2,5-Difluoro-phenyl)-(2,4-dihydro-indeno[1,2-c]pyrazol-3-yl)-amine] | 100 | 0.117 | 2.18
